Consider two molecules from patent US20190201586A1, “Three-Dimensional Tissue Matrix Scaffold System” (Washington State University, priority 2016, published 2019).

Common to all, as to type: cell-based
One assay has as its system T47D breast cancer cells. In words: CCK-8 proliferation assay and drug screening, T47D cells in 2D culture and on 3D scaffolds. The note with it: 1 μM; for cell proliferation after administration of the drug: on day 7, 9, 11, 13, 3D and 2D cultures; for response of the cancer cells to the drug in cell-laden TMS cultures compared to the other 3D culture conditions: TMS vs collagen, IrECM, PLGA scaffolds. As for the experimental part: (§1) Proliferation assay in 3D culture. The proliferation of the cells grown on the different scaffolds or treated with the different drugs was measured using the CCK-8 reagent at the time points indicated. Briefly, the cell-laden scaffolds (triplicates for each condition) were cultured in 96-well plates. CCK-8 solution was added at a 1:10 dilution into the cultures. The colorimetric absorbance of the supernatants of the cultures that reflects the cell proliferation rate was measured at 490 nm using a Synergy 2 microplate reader (BioTek) after 4 hours of incubation (37° C., 5% CO2). Error bars represent standard deviations (s.d.) of the means of three independent experiments.
(§2) Drug screening. The T47D and BT474 breast cancer cells were used to test the efficacies of the two anticancer drugs, HT and Taxol, in 2D and 3D cultures. 2×10^3 cells/well and 1×10^5 cells/scaffold (in triplicates) were seeded on 2D surface and the 3D scaffolds, respectively, and cultured in 96-well plates for 7 days. The drugs at the final concentration of 1 μM were administered separately to the cultures on day 7, 9, 11, 13 of culture for 24 hours, and cell survival as well as proliferation status assessed on day 1, 8, 10, 12, 14, 21 using the CCK-8 reagent and the Live/Dead assay, respectively. After the measurement on day 14, a seven-day recovering period was included to evaluate the post-treatment proliferation potential of the cells. Three independent experiments were performed for statistical significance.

A further assay has as its system T47D cells. The assay can be described thus: Live/Dead Cell staining of scaffold cultures after drug treatment. The note with it: T47D-laden DBT-TMS and PLGA scaffolds; 1 μM. The procedure:
Live/Dead Cell staining. The survival of the cells grown on the 3D scaffolds were assessed using the Live/Dead Cell Staining kit. The cell-carrying scaffolds at different time points or under different treatment conditions were collected and manually sectioned at 250-500 μm of thickness. The sections were washed twice with 1×PBS (37° C.), incubated in the staining solution (2 μM of calcein-AM and 4 μM of EhtD-III in 1×PBS) at RT for 45 minutes, and imaged using fluorescence microscopy. Calcein-AM stains live cells green (under EGFP filter), while EthD-III stains dead cells red (under Texas Red filter).
as §2, with “Three independent experiments were performed for statistical significance.” left out

In assay [1] the test system is BT474 breast cancer cells. The assay can be described thus: CCK-8 proliferation assay and drug screening, BT474 cells in 2D culture and on 3D scaffolds. The note with it: 1 μM; for cell proliferation after administration of the drug: on day 7, 9, 11, 13, 3D and 2D cultures; for response of the cancer cells to the drug in cell-laden TMS cultures compared to the other 3D culture conditions: TMS vs collagen, IrECM, PLGA scaffolds. As for the experimental part: as §1, §2
(Tetrazolium assays rely on reduction of a dye to a coloured formazan, in cell work by metabolically active cells.)

As for `CC(=O)O[C@H]1C(=O)[C@@]2(C)[C@H]([C@H](OC(=O)c3ccccc3)[C@]3(O)C[C@H](OC(=O)[C@H](O)[C@@H](NC(=O)c4ccccc4)c4ccccc4)C(C)=C1C3(C)C)[C@]1(OC(C)=O)CO[C@@H]1C[C@@H]2O` [Taxol, Paclitaxel], the “cell proliferation after administration of the drug” value (“cell proliferation … of the drug” below) (in the assay with T47D breast cancer cells; in assay [1]) was “time-dependently inhibited cell proliferation” in each case. In addition, the “response of the cancer cells to the drug in cell-laden TMS cultures compared to the other 3D culture conditions” value (with T47D breast cancer cells; in assay [1]) was “lower response” each time. Moreover, the “cell proliferation and clustering over the period of treatment (Live/Dead staining)” value in the assay with T47D cells was “markedly attenuated”.
Regarding `CC/C(=C(\c1ccc(O)cc1)c1ccc(OCCN(C)C)cc1)c1ccccc1` [HT, (Z)-4-Hydroxytamoxifen], in the assay with T47D breast cancer cells, the “cell proliferation … of the drug” value is “time-dependently inhibited cell proliferation” and the “response of the cancer cells to the drug in cell-laden TMS cultures compared to the other 3D culture conditions” value was “lower response”. For the same molecule, the “cell proliferation and clustering over the period of treatment (Live/Dead staining)” value in the assay with T47D cells was “markedly attenuated”. For the same molecule, in assay [1], the “cell proliferation … of the drug” value is “time-dependently inhibited cell proliferation” and the “response of the cancer cells to the drug in cell-laden TMS cultures compared to the other 3D culture conditions” value was “lower response”.
